Our source for the IC50, GI50 and Activity values is ChEMBL document CHEMBL5096234, “Discovery, Optimization, and Evaluation of Selective CDK4/6 Inhibitors for the Treatment of Breast Cancer” (J Med Chem, 2022).

Assay [1] addresses CDK4/Cyclin D3 (Homo sapiens, UniProt P11802). As to the kind of experiment: Inhibition of CDK4/cyclin-D3 (unknown origin) in presence of ATP by time resolved-FRET assay. The class given is protein-complex assay.
In assay [2] the test system is MCF7. As to the kind of experiment: Antiproliferative activity against human MCF7 cells assessed as cell growth inhibition incubated for 72 hrs by CCK-8 assay. The class given is functional. On the technique in general: Tetrazolium dyes change colour on reduction, which living cells bring about.
The target in assay [3] is CDK6/cyclin D1 (Homo sapiens, UniProt Q00534). As to the kind of experiment: Inhibition of CDK6/cyclin-D1 (unknown origin) in presence of ATP by time resolved-FRET assay. Type of assay: protein-complex assay.
Assay [4] addresses CDK7/Cyclin H/MNAT1 (Homo sapiens, UniProt P50613). Kind of assay: Inhibition of CDK7/cyclin H/MAT1 (unknown origin) in presence of ATP by time resolved-FRET assay. Type of assay: protein-complex assay.
Assay [5] can be described thus: Inhibition of CDK1/cyclin B (unknown origin) in presence of ATP by time resolved-FRET assay. On the set-up: species or system Homo sapiens.
Assay [6] has as its target CDK9/cyclin T1 (Homo sapiens, UniProt P50750). Kind of assay: Inhibition of CDK9/Cyclin T1 (unknown origin) in presence of ATP by time resolved-FRET assay. The class given is protein-complex assay.
Assay [7] has as its target CDK2/Cyclin A2 (Homo sapiens, UniProt P24941). As to the kind of experiment: Inhibition of CDK2/Cyclin A (unknown origin) in presence of ATP by time resolved-FRET assay. Type of assay: protein-complex assay.
The test system of assay [8] is MCF-10A. As to the kind of experiment: Antiproliferative activity against human MCF-10A cells assessed as cell growth inhibition incubated for 72 hrs by CCK-8 assay. The class given is functional.
For assay [9], the system named is T47D. As to the kind of experiment: Antiproliferative activity against human T47D cells assessed as cell growth inhibition incubated for 72 hrs by CCK-8 assay. The class given is functional.
Assay [10] concerns MCF7. Kind of assay: Induction of cell cycle arrest in human MCF7 cells assessed as accumulation of cells at G1 phase at 1.5 uM incubated for 24 hrs by propidium iodide staining based flow cytometry analysis (reference value: 57.38%). The class given is functional.
For assay [11], the system named is T47D. As to the kind of experiment: Induction of cell cycle arrest in human T47D cells assessed as accumulation of cells at G1 phase at 1.5 uM incubated for 24 hrs by propidium iodide staining based flow cytometry analysis (reference value: 69.55 %). The class given is functional. In general terms: In flow cytometry, cells or beads pass a laser one at a time.

Assay [12] concerns MCF7. Kind of assay: Induction of cell cycle arrest in human MCF7 cells assessed as accumulation of cells at G2 phase at 1.5 uM incubated for 24 hrs by propidium iodide staining based flow cytometry analysis (reference value: 29.66%). Type of assay: functional.
Assay [13] relates to T47D. As to the kind of experiment: Induction of cell cycle arrest in human T47D cells assessed as accumulation of cells at G2 phase at 1.5 uM incubated for 24 hrs by propidium iodide staining based flow cytometry analysis (reference value: 16.57%). The class given is functional.
Assay [14] concerns MCF7. Kind of assay: Induction of cell cycle arrest in human MCF7 cells assessed as accumulation of cells at G2 phase at 2.5 uM incubated for 24 hrs by propidium iodide staining based flow cytometry analysis (reference value: 29.66%). Type of assay: functional.
Assay [15] has as its system ZR-75-1. As to the kind of experiment: Antiproliferative activity against human ZR-75-1 cells assessed as cell growth inhibition incubated for 72 hrs by CCK-8 assay. Type of assay: functional.
In assay [16] the test system is MCF7. Kind of assay: Induction of cell cycle arrest in human MCF7 cells assessed as accumulation of cells at G1 phase at 2.5 uM incubated for 24 hrs by propidium iodide staining based flow cytometry analysis (reference value: 57.38%). The class given is functional.

Structures are written as SMILES. Bounds are passed on as bounds.

Sequence of CDK4/Cyclin D3 (P11802 whole entry): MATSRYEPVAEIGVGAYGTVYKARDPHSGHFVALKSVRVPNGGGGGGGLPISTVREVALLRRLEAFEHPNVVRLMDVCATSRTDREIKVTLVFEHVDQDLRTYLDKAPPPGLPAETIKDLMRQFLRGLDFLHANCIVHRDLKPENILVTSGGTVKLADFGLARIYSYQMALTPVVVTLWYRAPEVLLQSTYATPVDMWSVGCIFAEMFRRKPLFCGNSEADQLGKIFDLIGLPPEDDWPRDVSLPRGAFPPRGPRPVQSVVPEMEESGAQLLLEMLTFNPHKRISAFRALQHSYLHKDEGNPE
Sequence of CDK4/Cyclin D3 (P30281 whole entry, further chain): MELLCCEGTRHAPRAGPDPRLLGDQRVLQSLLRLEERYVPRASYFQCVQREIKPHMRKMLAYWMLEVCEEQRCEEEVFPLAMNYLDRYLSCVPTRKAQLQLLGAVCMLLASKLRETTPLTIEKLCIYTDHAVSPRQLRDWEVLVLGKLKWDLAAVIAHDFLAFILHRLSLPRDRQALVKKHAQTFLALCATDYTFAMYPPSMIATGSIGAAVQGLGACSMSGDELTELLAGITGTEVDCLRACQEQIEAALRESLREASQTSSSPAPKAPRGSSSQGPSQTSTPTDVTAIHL
Sequence of CDK9/cyclin T1 (O60563 whole entry): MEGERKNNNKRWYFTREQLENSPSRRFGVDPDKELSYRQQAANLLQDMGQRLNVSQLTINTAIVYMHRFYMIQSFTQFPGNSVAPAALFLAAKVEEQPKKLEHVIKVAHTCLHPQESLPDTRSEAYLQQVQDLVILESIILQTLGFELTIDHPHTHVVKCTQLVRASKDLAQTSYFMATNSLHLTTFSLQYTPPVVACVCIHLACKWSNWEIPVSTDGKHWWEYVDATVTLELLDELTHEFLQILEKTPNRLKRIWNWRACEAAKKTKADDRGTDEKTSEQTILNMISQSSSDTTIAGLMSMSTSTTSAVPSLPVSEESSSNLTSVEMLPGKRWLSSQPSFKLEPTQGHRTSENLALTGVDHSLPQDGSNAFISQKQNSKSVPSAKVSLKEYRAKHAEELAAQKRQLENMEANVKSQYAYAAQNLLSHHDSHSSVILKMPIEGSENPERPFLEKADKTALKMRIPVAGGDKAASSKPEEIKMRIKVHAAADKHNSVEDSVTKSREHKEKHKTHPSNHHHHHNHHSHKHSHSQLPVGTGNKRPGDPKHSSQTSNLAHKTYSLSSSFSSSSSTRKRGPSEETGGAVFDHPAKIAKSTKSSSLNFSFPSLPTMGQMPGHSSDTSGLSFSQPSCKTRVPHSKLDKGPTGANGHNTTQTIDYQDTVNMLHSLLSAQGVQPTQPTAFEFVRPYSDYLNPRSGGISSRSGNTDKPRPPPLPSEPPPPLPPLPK
Sequence of CDK9/cyclin T1 (P50750 whole entry): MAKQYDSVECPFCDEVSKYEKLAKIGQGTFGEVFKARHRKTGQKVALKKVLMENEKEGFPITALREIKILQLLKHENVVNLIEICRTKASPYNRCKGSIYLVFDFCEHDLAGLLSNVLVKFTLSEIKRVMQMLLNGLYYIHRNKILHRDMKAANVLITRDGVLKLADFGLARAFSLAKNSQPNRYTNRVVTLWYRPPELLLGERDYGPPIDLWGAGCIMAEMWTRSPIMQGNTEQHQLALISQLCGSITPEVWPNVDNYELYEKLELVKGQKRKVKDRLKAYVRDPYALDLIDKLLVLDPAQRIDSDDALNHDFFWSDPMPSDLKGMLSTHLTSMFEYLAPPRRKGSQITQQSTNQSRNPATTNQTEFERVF
Sequence of CDK6/cyclin D1 (P24385 whole entry): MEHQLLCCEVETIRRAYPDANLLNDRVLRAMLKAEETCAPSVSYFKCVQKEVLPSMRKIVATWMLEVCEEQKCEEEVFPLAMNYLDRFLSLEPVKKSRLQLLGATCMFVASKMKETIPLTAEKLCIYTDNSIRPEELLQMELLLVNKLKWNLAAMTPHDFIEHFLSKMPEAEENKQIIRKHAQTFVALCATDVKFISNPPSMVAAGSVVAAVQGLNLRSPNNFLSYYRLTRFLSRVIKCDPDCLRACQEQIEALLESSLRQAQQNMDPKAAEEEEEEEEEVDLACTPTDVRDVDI
Sequence of CDK6/cyclin D1 (Q00534 whole entry): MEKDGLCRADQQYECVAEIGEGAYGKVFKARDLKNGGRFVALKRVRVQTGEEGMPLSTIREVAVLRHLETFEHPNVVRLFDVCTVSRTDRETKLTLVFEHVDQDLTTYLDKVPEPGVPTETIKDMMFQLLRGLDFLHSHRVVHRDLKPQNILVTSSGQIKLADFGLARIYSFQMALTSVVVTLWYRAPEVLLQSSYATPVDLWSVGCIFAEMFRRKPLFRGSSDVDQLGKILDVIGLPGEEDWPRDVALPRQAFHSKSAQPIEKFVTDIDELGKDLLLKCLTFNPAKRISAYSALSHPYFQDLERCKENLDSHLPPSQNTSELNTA
Sequence of CDK7/Cyclin H/MNAT1 (P51946 whole entry): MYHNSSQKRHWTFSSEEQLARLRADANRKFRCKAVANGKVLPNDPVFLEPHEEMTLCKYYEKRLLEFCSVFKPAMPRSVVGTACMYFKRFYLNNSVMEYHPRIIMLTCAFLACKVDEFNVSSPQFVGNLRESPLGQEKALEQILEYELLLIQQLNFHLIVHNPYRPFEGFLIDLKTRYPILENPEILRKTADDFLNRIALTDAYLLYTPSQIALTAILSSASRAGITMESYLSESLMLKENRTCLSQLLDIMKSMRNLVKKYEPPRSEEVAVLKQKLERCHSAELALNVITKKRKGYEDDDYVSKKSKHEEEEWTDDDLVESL
Sequence of CDK7/Cyclin H/MNAT1 (P50613 whole entry): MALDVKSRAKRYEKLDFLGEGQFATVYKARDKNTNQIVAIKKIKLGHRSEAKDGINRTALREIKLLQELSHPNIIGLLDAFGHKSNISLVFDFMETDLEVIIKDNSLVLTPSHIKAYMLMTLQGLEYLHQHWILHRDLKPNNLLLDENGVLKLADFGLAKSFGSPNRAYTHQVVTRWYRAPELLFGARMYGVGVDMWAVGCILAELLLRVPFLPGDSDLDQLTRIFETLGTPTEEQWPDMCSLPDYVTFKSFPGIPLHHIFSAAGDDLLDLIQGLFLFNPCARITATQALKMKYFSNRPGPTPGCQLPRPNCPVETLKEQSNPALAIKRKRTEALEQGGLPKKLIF
Sequence of CDK7/Cyclin H/MNAT1 (P51948 whole entry, further chain): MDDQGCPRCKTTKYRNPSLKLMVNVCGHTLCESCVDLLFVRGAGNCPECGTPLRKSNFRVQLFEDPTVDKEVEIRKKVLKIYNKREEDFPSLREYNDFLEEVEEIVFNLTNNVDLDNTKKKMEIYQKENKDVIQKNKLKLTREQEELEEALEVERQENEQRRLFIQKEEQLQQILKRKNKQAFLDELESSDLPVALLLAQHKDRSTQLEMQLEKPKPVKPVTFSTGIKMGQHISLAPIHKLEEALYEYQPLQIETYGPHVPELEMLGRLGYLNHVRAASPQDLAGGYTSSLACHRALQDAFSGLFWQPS

`CCN1CCN(C(=O)c2ccc(Nc3ncc(F)c(-c4ccc5c(c4)CCNC5=O)n3)nc2)CC1`: the IC50 in assay [1] was found to be 0.021 µM; in assay [3], 0.06 µM. The GI50 in [2] was 3.24 µM.

`CCN1CCN(C(=O)c2ccc(Nc3ncc(F)c(-c4ccc5c(c4)OCCC5=O)n3)nc2)CC1`: the IC50 in [3] turned out to be 0.336 µM.

Take `CCN1CCN(C(=O)c2ccc(Nc3ncc(F)c(-c4ccc5c(c4)CCN(C(C)C)C5=O)n3)nc2)CC1`: the IC50 in assay [3] came out at 0.317 µM.

Take `CC(C)(C)OC(=O)N1CCN(c2ccc(Nc3ncc(F)c(-c4ccc5c(c4)OCO5)n3)nc2)CC1`: the IC50 in [3] is > 10 µM.

On to `O=C(c1ccc(Nc2ncc(F)c(-c3ccc4c(c3)OCCO4)n2)nc1)N1CCNCC1`, for which the IC50 in assay [3] came out at 0.117 µM.

Consider `Fc1cnc(Nc2ccc(N3CCNCC3)cn2)nc1-c1ccc2c(c1)OCCO2`, for which the IC50 turned out to be 0.036 µM in assay [1] and 0.081 µM in [3]. Moreover, the concentration for 50% growth inhibition (GI50) in assay [2] turned out to be 3.77 µM.

Consider `CC(C)N1CCN(C(=O)c2ccc(Nc3ncc(F)c(-c4ccc5c(c4)OCCO5)n3)nc2)CC1`, for which the IC50 in assay [3] worked out at 0.105 µM.

Turning to `CCN1CCN(Cc2ccc(Nc3ncc(F)c(-c4ccc5c(c4)OCO5)n3)nc2)CC1`, the IC50 in [3] was determined as 0.254 µM.

Regarding `CC(C)N1CCN(C(=O)c2ccc(Nc3ncc(F)c(-c4ccc5c(c4)OCCC5=O)n3)nc2)CC1`, the IC50 in [3] amounted to 0.364 µM.

In the case of `O=C1NCCc2cc(-c3nc(Nc4ccc(N5CCNCC5)cn4)ncc3F)ccc21`, the IC50 in [1] was determined as 0.008 µM; in assay [4] it was 8.24 µM; in assay [3] it was 0.036 µM; in [5], 0.148 µM; in [6], 0.382 µM; in [7], 0.175 µM. For the same compound, the GI50 in assay [2] was 2.9 µM.

For `CN1CCc2cc(-c3nc(Nc4ccc(N5CCNCC5)cn4)ncc3F)ccc2C1=O`, the IC50 is 0.003 µM in assay [1]; > 10 µM in [4]; 0.032 µM in assay [3]; 1.21 µM in assay [5]; 1.04 µM in [6]; 0.676 µM in [7]. For the same compound, in assay [2], the GI50 came out at 2.97 µM.

In the case of `CCN1CCN(Cc2ccc(Nc3ncc(F)c(-c4cc(F)c5nc(C)n(C(C)C)c5c4)n3)nc2)CC1` [ABEMACICLIB], the GI50 was found to be 5.09 µM in assay [8], 0.832 µM in assay [2] and 0.771 µM in [9]. In addition, the Activity in [10] turned out to be 77.44%; in assay [11] it was 81.8%; in assay [12] it was 17.65%; in assay [13], 9.32%.

Turning to `CC(C)(C)OC(=O)N1CCN(Cc2ccc(Nc3ncc(F)c(-c4ccc5c(c4)OCCO5)n3)nc2)CC1`, the IC50 in assay [3] is > 10 µM.

For `CC(C)(C)OC(=O)N1CCN(C(=O)c2ccc(Nc3ncc(F)c(-c4ccc5c(c4)OCCO5)n3)nc2)CC1`, the IC50 in assay [3] is > 10 µM.

In the case of `CC(C)N1CCN(Cc2ccc(Nc3ncc(F)c(-c4ccc5c(c4)CCN(C(C)C)C5=O)n3)nc2)CC1`, the IC50 in assay [3] was 0.64 µM.

In the case of `CCN1CCN(Cc2ccc(Nc3ncc(F)c(-c4ccc5c(c4)OCCO5)n3)nc2)CC1`, the IC50 in [1] was 0.08 µM; in [3], 0.097 µM. Moreover, the GI50 in assay [2] amounted to 4.71 µM.

Consider `CC(C)N1CCc2cc(-c3nc(Nc4ccc(N5CCNCC5)cn4)ncc3F)ccc2C1=O`, for which the IC50 turned out to be 0.014 µM in [1]; 8.72 µM in assay [4]; 0.042 µM in [3]; 6.96 µM in assay [5]; 1.96 µM in assay [6]; 0.495 µM in [7]. The GI50 in assay [2] amounted to 3.07 µM.

As for `CC(=O)c1c(C)c2cnc(Nc3ccc(N4CCNCC4)cn3)nc2n(C2CCCC2)c1=O` [PALBOCICLIB], the Activity in assay [14] turned out to be 14.51%; in [11], 84.74%; in assay [13] it was 6.13%; in assay [16] it was 81.49%. Further, the GI50 in assay [8] is 19.1 µM; in assay [2] it was 3.94 µM; in assay [9] it was 1.06 µM; in assay [15], 2.28 µM.

For `CC(C)N1CCN(Cc2ccc(Nc3ncc(F)c(-c4ccc5c(c4)OCCO5)n3)nc2)CC1`, the IC50 in assay [3] was found to be 0.138 µM.

In the case of `CCN1CCN(C(=O)c2ccc(Nc3ncc(F)c(-c4ccc5c(c4)CCC(=O)N5C(C)C)n3)nc2)CC1`, the IC50 in assay [3] came to 3.72 µM.

Take `CC(C)(C)OC(=O)N1CCN(c2ccc(Nc3ncc(F)c(-c4ccc5c(c4)OCCO5)n3)nc2)CC1`: the IC50 in assay [3] is > 10 µM.

As to `CCN1CCN(C(=O)c2ccc(Nc3ncc(F)c(-c4ccc5c(c4)OCO5)n3)nc2)CC1`, in assay [3], the IC50 is 0.333 µM.

For `CC(C)N1CCN(C(=O)c2ccc(Nc3ncc(F)c(-c4ccc5c(c4)OCO5)n3)nc2)CC1`, the 50% inhibitory concentration (IC50) in [3] was found to be 0.296 µM.

As for `Fc1cnc(Nc2ccc(CN3CCNCC3)cn2)nc1-c1ccc2c(c1)OCCO2`, in assay [3], the IC50 turned out to be 0.136 µM.

With `CCN1CCN(C(=O)c2ccc(Nc3ncc(F)c(-c4ccc5c(c4)OCCO5)n3)nc2)CC1`, the IC50 in [3] turned out to be 0.112 µM.

As for `Fc1cnc(Nc2ccc(N3CCNCC3)cn2)nc1-c1ccc2c(c1)OCO2`, the IC50 in assay [3] was 0.12 µM.

With `CN1CCN(c2ccc(Nc3ncc(F)c(-c4ccc5c(c4)OCO5)n3)nc2)CC1`, the IC50 in assay [3] came to 1.14 µM.

On to `CN1CCN(c2ccc(Nc3ncc(F)c(-c4ccc5c(c4)OCCO5)n3)nc2)CC1`, for which the half-inhibitory concentration (IC50) in assay [3] came to 0.66 µM.

`CC(C)N1CCN(Cc2ccc(Nc3ncc(F)c(-c4ccc5c(c4)CCC(=O)N5C(C)C)n3)nc2)CC1`: in assay [3], the IC50 was > 1 µM.

`CC(C)N1CCN(C(=O)c2ccc(Nc3ncc(F)c(-c4ccc5c(c4)CCC(=O)N5C(C)C)n3)nc2)CC1`: the IC50 in assay [3] is > 1 µM.

In general, IC50 refers to the midpoint of a concentration-inhibition curve. Broadly, the GI50 is the concentration giving 50% growth inhibition.
